Test results as given in patent US11787830B2, “Crystalline solids of nicotinic acid mononucleotide and esters thereof and methods of making and use” (Metro International Biotech, LLC, priority 2021, dated 2023).
In brackets after ≈: the same amount, converted by molar mass.

Assay: physchem
Description: An additional 2 mL of water was added to give a clear solution. […] This was allowed to stir for two days at ambient temperature. The solids were filtered and washed with 15 mL of (2:1 v:v) 1-propanol:water, 15 mL of 1-propanol, then 2×15 mL of methyl tert-butyl ether.

## O=C([O-])c1ccc[n+]([C@@H]2O[C@H](COP(=O)(O)O)[C@@H](O)[C@H]2O)c1 [Compound 2, Nicotinic acid mononucleotide]
  water solubility as ratio water:Compound 2: 50:1 w:w
water
  solubility: ~20 mg/mL (≈ 59.7 mM)
